Results as given in PubChem BioAssay (NCI).
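Abbreviation: GI50, concentration required for 50% inhibition of growth. TGI is the concentration that stops growth completely.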

Assays:
Test in all cases: NCI tumour cell line growth inhibition, 384-well format
786-0 renal = tested on: 786-0 renal
A498 renal = tested on: A498 renal
A549 NSCLC = tested on: A549 NSCLC
ACHN renal = tested on: ACHN renal
BT-549 breast = tested on: BT-549 breast
CAKI-1 renal = tested on: CAKI-1 renal
CCRF-CEM leukemia = tested on: CCRF-CEM leukemia
COLO 205 colon = tested on: COLO 205 colon
DU-145 prostate = tested on: DU-145 prostate
EKVX NSCLC = tested on: EKVX NSCLC
HCC-2998 colon = tested on: HCC-2998 colon
HCT-116 colon = tested on: HCT-116 colon
HCT-15 colon = tested on: HCT-15 colon
HL-60(TB) leukemia = tested on: HL-60(TB) leukemia
HOP-62 NSCLC = tested on: HOP-62 NSCLC
HOP-92 NSCLC = tested on: HOP-92 NSCLC
HS 578T breast = tested on: HS 578T breast
HT29 colon = tested on: HT29 colon
IGROV1 ovarian = tested on: IGROV1 ovarian
K-562 leukemia = tested on: K-562 leukemia
KM12 colon = tested on: KM12 colon
LOX IMVI melanoma = tested on: LOX IMVI melanoma
M14 melanoma = tested on: M14 melanoma
MALME-3M melanoma = tested on: MALME-3M melanoma
MCF7 breast = tested on: MCF7 breast
MDA-MB-231 breast = tested on: MDA-MB-231 breast
MDA-MB-435 melanoma = tested on: MDA-MB-435 melanoma
MDA-MB-468 breast = tested on: MDA-MB-468 breast
MOLT-4 leukemia = tested on: MOLT-4 leukemia
NCI-H226 lung = tested on: NCI-H226 lung
NCI-H23 lung = tested on: NCI-H23 lung
NCI-H322M lung = tested on: NCI-H322M lung
NCI-H460 NSCLC = tested on: NCI-H460 NSCLC
NCI-H522 lung = tested on: NCI-H522 lung
NCI/ADR-RES ovarian = tested on: NCI/ADR-RES ovarian
OVCAR-3 ovarian = tested on: OVCAR-3 ovarian
OVCAR-4 ovarian = tested on: OVCAR-4 ovarian
OVCAR-5 ovarian = tested on: OVCAR-5 ovarian
OVCAR-8 ovarian = tested on: OVCAR-8 ovarian
PC-3 prostate = tested on: PC-3 prostate
RPMI-8226 leukemia = tested on: RPMI-8226 leukemia
RXF 393 renal = tested on: RXF 393 renal
SF-268 CNS = tested on: SF-268 CNS
SF-295 CNS = tested on: SF-295 CNS
SF-539 CNS = tested on: SF-539 CNS
SK-MEL-28 melanoma = tested on: SK-MEL-28 melanoma
SK-MEL-5 melanoma = tested on: SK-MEL-5 melanoma
SK-OV-3 ovarian = tested on: SK-OV-3 ovarian
SN12C renal = tested on: SN12C renal
SNB-19 CNS = tested on: SNB-19 CNS
SNB-75 CNS = tested on: SNB-75 CNS
SW-620 colon = tested on: SW-620 colon
T-47D breast = tested on: T-47D breast
TK-10 renal = tested on: TK-10 renal
U251 glioblastoma = tested on: U251 glioblastoma
UACC-257 melanoma = tested on: UACC-257 melanoma
UACC-62 melanoma = tested on: UACC-62 melanoma
UO-31 renal = tested on: UO-31 renal

Cc1cnc(CNC(=O)c2c(=O)c3ccc(N4CCCN(C)CC4)nc3n3c2sc2ccccc23)cn1
GI50 ([…]-0 renal): 0.359 µM | TGI (786-0 renal): 12.8 µM | GI50 (A498 renal): 0.112 µM | TGI (A498 renal): 1.55 µM | GI50 (A549 NSCLC): 0.0369 µM | TGI (A549 NSCLC): 1.34 µM | GI50 (ACHN renal): 0.0643 µM | TGI (ACHN renal): > 100 µM | GI50 (BT-549 breast): 1.38 µM | TGI (BT-549 breast): > 100 µM | GI50 (CAKI-1 renal): 0.607 µM | TGI (CAKI-1 renal): > 100 µM | GI50 (CCRF-CEM leukemia): 0.0242 µM | TGI (CCRF-CEM leukemia): 0.111 µM | GI50 (COLO 205 colon): 0.244 µM | TGI (COLO 205 colon): > 100 µM | GI50 (DU-145 prostate): 0.49 µM | TGI (DU-145 prostate): 33.5 µM | GI50 (EKVX NSCLC): 34 µM | TGI (EKVX NSCLC): > 100 µM | GI50 (HCC-2998 colon): 1.66 µM | TGI (HCC-2998 colon): 19.2 µM | GI50 (HCT-116 colon): 0.112 µM | TGI (HCT-116 colon): 1.45 µM | GI50 (HCT-15 colon): 0.0877 µM | TGI (HCT-15 colon): 2.76 µM | GI50 (HL-60(TB) leukemia): 0.0586 µM | TGI (HL-60(TB) leukemia): 2.26 µM | GI50 (HOP-62 NSCLC): 0.122 µM | TGI (HOP-62 NSCLC): > 100 µM | GI50 (HOP-92 NSCLC): 0.353 µM | TGI (HOP-92 NSCLC): > 100 µM | GI50 (HS 578T breast): 0.0697 µM | TGI (HS 578T breast): > 100 µM | GI50 (HT29 colon): 0.33 µM | TGI (HT29 colon): > 100 µM | GI50 (IGROV1 ovarian): 0.323 µM | TGI (IGROV1 ovarian): > 100 µM | GI50 (K-562 leukemia): 0.231 µM | TGI (K-562 leukemia): 16.3 µM | GI50 (KM12 colon): 1.03 µM | TGI (KM12 colon): 2.45 µM | GI50 (LOX IMVI melanoma): 0.138 µM | TGI (LOX IMVI melanoma): 1.41 µM | GI50 (M14 melanoma): 0.781 µM | TGI (M14 melanoma): > 100 µM | GI50 (MALME-3M melanoma): 0.806 µM | TGI (MALME-3M melanoma): > 100 µM | GI50 (MCF7 breast): 0.416 µM | TGI (MCF7 breast): 1.75 µM | GI50 (MDA-MB-231 breast): 0.397 µM | TGI (MDA-MB-231 breast): > 100 µM | GI50 (MDA-MB-435 melanoma): 2.9 µM | TGI (MDA-MB-435 melanoma): > 100 µM | GI50 (MDA-MB-468 breast): 12.4 µM | TGI (MDA-MB-468 breast): > 100 µM | TGI (MOLT-4 leukemia): 0.0175 µM | GI50 (NCI-H226 lung): 0.741 µM | TGI (NCI-H226 lung): > 100 µM | GI50 (NCI-H23 lung): 0.714 µM | TGI (NCI-H23 lung): > 100 µM | GI50 (NCI-H322M lung): 0.877 µM | TGI (NCI-H322M lung): > 100 µM | GI50 (NCI-H460 NSCLC): 0.0228 µM | TGI (NCI-H460 NSCLC): 1.12 µM | GI50 (NCI-H522 lung): 19.9 µM | TGI (NCI-H522 lung): > 100 µM | GI50 (NCI/ADR-RES ovarian): > 100 µM | TGI (NCI/ADR-RES ovarian): > 100 µM | GI50 (OVCAR-3 ovarian): 0.462 µM | TGI (OVCAR-3 ovarian): 48.5 µM | GI50 (OVCAR-4 ovarian): 0.383 µM | TGI (OVCAR-4 ovarian): 5.56 µM | GI50 (OVCAR-5 ovarian): 27.7 µM | TGI (OVCAR-5 ovarian): > 100 µM | GI50 (OVCAR-8 ovarian): 0.234 µM | TGI (OVCAR-8 ovarian): > 100 µM | GI50 (PC-3 prostate): 1.6 µM | TGI (PC-3 prostate): 22.3 µM | GI50 (RPMI-8226 leukemia): 0.0583 µM | TGI (RPMI-8226 leukemia): 1.62 µM | GI50 (RXF 393 renal): 0.0806 µM | TGI (RXF 393 renal): > 100 µM | GI50 (SF-268 CNS): 0.0241 µM | TGI (SF-268 CNS): 0.088 µM | GI50 (SF-295 CNS): 0.608 µM | TGI (SF-295 CNS): > 100 µM | GI50 (SF-539 CNS): 0.259 µM | TGI (SF-539 CNS): > 100 µM | GI50 (SK-MEL-28 melanoma): 27 µM | TGI (SK-MEL-28 melanoma): > 100 µM | GI50 (SK-MEL-5 melanoma): 0.172 µM | TGI (SK-MEL-5 melanoma): 48 µM | GI50 (SK-OV-3 ovarian): 1.35 µM | TGI (SK-OV-3 ovarian): > 100 µM | GI50 (SN12C renal): 0.307 µM | TGI (SN12C renal): > 100 µM | GI50 (SNB-19 CNS): 0.322 µM | TGI (SNB-19 CNS): > 100 µM | GI50 (SNB-75 CNS): 0.832 µM | TGI (SNB-75 CNS): > 100 µM | GI50 (SW-620 colon): 0.0991 µM | TGI (SW-620 colon): > 100 µM | GI50 (T-47D breast): 21.5 µM | TGI (T-47D breast): > 100 µM | GI50 (TK-10 renal): 9.17 µM | TGI (TK-10 renal): > 100 µM | GI50 (U251 glioblastoma): 0.517 µM | TGI (U251 glioblastoma): > 100 µM | GI50 (UACC-257 melanoma): 7.63 µM | TGI (UACC-257 melanoma): > 100 µM | GI50 (UACC-62 melanoma): 0.175 µM | TGI (UACC-62 melanoma): > 100 µM | GI50 (UO-31 renal): 1.54 µM | TGI (UO-31 renal): > 100 µM
